Like-named read-outs stand apart in the source and are kept apart here. Each block holds one compound with its values, some of them ahead of it.
Target: T1, CFTR (Homo sapiens, UniProt P13569, DEL508-508)
T1 construct: endogenous in cells; host or cells: primary human bronchial epithelial cells from CF subjects (F508del/MF-HBE), differentiated at air-liquid interface
Assay: HBE assay: Ussing chamber assay of CFTR-mediated short-circuit currents
Assay type: cell-based
Settings: for EC50: read-out: HBE EC50
How it was run: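 CFTR-mediated Isc (μA/cm²) equals the peak response to apical 20 μM forskolin minus the residual after a 20 μM each BPO/GlyH-101/CFTR inhibitor 172 cocktail, recorded in Ussing chambers at Vhold 0 mV, 37 °C, pH 7.4, with 30 μM apical amiloride. Cells were F508del/MF HBE cultures preincubated 18-24 h with corrector (concentration range or 10 μM) plus 1 μM ivacaftor in 20% human serum.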

[1] = Table 13, read-out: HBE Max Activity (%)
[2] = Table 12, read-out: HBE Max Activity (%)
[3] = Table 11, read-out: HBE Max Activity (%)
[4] = HBE assay, read-out: HBE Max activity (%)
[5] = Table 10, read-out: HBE Max activity (%)
[6] = Table 12, at 10 μM, read-out: HBE Activity at 10 μM (%)
[7] = Table 13, at 10 μM, read-out: HBE Activity at 10 μM (%)
[8] = Table 11, at 10 μM, read-out: HBE Activity at 10 μM (%)

T1 sequence (P13569 with tags, fused parts or gaps DEL508-508): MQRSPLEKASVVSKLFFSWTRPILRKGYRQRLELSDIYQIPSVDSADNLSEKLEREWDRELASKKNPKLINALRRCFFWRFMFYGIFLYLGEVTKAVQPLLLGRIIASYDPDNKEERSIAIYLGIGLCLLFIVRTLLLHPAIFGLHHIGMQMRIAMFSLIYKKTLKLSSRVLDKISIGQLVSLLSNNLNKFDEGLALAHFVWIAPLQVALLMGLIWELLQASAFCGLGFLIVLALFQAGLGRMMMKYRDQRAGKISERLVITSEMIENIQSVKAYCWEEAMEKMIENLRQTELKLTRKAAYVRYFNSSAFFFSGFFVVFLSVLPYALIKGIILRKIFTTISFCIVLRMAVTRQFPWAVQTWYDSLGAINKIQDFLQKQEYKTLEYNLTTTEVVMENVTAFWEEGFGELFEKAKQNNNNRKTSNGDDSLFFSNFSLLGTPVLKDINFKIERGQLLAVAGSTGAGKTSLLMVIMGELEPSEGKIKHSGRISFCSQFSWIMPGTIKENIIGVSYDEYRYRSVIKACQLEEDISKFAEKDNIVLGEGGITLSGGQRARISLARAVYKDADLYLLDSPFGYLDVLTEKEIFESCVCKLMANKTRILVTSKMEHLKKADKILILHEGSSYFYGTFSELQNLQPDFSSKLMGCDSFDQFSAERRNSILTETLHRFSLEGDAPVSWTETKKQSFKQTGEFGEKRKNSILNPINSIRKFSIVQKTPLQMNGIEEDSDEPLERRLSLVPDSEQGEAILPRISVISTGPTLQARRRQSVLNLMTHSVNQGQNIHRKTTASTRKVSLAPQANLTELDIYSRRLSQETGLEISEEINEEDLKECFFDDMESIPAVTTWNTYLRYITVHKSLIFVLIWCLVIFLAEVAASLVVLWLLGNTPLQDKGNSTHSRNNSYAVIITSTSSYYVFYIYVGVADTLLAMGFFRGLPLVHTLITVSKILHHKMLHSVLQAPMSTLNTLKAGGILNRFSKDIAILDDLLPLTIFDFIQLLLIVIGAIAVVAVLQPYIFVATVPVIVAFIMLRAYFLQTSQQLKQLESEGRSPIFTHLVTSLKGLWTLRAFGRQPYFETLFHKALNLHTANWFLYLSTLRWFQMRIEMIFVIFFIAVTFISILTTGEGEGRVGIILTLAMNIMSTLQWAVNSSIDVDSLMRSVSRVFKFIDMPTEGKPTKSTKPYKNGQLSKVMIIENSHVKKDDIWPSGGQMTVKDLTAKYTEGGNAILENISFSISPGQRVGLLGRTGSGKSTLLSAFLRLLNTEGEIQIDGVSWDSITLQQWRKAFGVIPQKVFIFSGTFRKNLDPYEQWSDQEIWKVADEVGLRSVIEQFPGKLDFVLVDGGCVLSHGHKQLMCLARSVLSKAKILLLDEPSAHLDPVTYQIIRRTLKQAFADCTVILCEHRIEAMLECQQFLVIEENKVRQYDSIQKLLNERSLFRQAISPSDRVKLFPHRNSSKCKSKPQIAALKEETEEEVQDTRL

Compound: CC(C)=Cc1cccc(CN2C(=O)c3cccc(c3)S(=O)(=O)Nc3nc(cc(-c4c(C)cccc4C)n3)OC[C@H]2CC(C)(C)C)n1 [Compound 589]
EC50 (Table 12): < 1 µM | Emax [2]: > 60%

Compound: Cc1cccc(C)c1-c1cc2nc(n1)NS(=O)(=O)c1cccc(c1)C(=O)N(Cc1nccc(N3CCC(C)(C)CC3)n1)[C@H](CC(C)(C)C)CO2 [Compound 636]
HBE Max activity (%) (Table 11): +++ (+++ is >60%) | EC50 (Table 11): < 1 µM

Compound: Cc1cccc(C)c1-c1cc2nc(n1)NS(=O)(=O)c1cccc(c1)C(=O)N(Cc1cnn(C)c1C)[C@H](CC(C)(C)C)CO2 [Compound 824]
activation at 10 µM (Table 10, at 10 μM, read-out: HBE activity at 10 (μM) (%)): > 60%

Compound: Cc1cccc(C)c1-c1cc2nc(n1)NS(=O)(=O)c1cccc(c1)C(=O)N(Cc1cccc(N(C)C3CC4(CCC4)C3)n1)[C@H](CC(C)(C)C)CO2 [Compound 439]
EC50 (Table 12): < 1 µM | Emax [2]: > 60%

Compound: Cc1cccc(C)c1-c1cc2nc(n1)NS(=O)(=O)c1cccc(c1)C(=O)N(Cc1ncc(N3CCOC4(CCC4)C3)cn1)[C@H](CC(C)(C)C)CO2 [Compound 1146]
EC50 (Table 13): < 1 µM | Emax [1]: > 60%

Compound: Cc1cccc(C)c1-c1cc2nc(n1)NS(=O)(=O)c1cccc(c1)C(=O)N(Cc1cccc(C(C)(C)C)n1)[C@H](CC(C)(C)C)CO2 [Compound 731]
EC50 (Table 11): < 1 µM | Emax [3]: > 60%

Compound: COCCN(CC(C)C)c1cccc(CN2C(=O)c3cccc(c3)S(=O)(=O)Nc3nc(cc(-c4c(C)cccc4C)n3)OC[C@H]2CC(C)(C)C)n1 [Compound 1372]
EC50 (HBE assay): < 1 µM | Emax [4]: > 60%

Compound: Cc1cccc(C)c1-c1cc2nc(n1)NS(=O)(=O)c1cccc(c1)C(=O)N(Cc1cccc(N3CCOC(C)(C)C3)n1)[C@H](CC(C)(C)C)CO2 [Compound 872]
EC50 (Table 12): < 1 µM | Emax [2]: > 60%

Compound: Cc1cccc(C)c1-c1cc2nc(n1)NS(=O)(=O)c1cccc(c1)C(=O)N(Cc1ccc(N(C)C)cn1)[C@H](CC(C)(C)C)CO2 [Compound 503]
EC50 (Table 10): < 1 µM | Emax [5]: > 60%

Compound: Cc1cccc(C)c1-c1cc2nc(n1)NS(=O)(=O)c1cccc(c1)C(=O)N(Cc1ncc(N3CCSCC3)cn1)[C@H](CC(C)(C)C)CO2 [Compound 1147]
EC50 (Table 13): < 1 µM | Emax [1]: > 60%

Compound: Cc1cccc(C)c1-c1cc2nc(n1)NS(=O)(=O)c1cccc(c1)C(=O)N(Cc1nc(N(C)C)cc(C(F)(F)F)n1)[C@H](CC(C)(C)C)CO2 [Compound 325]
activation at 10 µM [6]: > 600%

Compound: Cc1cccc(C)c1-c1cc2nc(n1)NS(=O)(=O)c1cccc(c1)C(=O)N(CC(=O)N1CCC[C@@H](c3ccccc3)C1)[C@H](CC(C)(C)C)CO2 [Compound 180]
activation at 10 µM [7]: > 600%

Compound: Cc1cccc(C)c1-c1cc2nc(n1)NS(=O)(=O)c1cccc(c1)C(=O)N(Cc1ccc(-c3ccccc3)cn1)[C@H](CC(C)(C)C)CO2 [Compound 499]
EC50 (Table 10): < 1 µM | Emax [5]: > 60%

Compound: Cc1cccc(C)c1-c1cc2nc(n1)NS(=O)(=O)c1cccc(c1)C(=O)N(Cc1ncc(N3CCC(F)(F)CC3)cn1)[C@H](CC(C)(C)C)CO2 [Compound 1443]
activation at 10 µM (HBE assay, 10 μM, read-out: HBE Activity at 10 μM (%)): > 60%

Compound: Cc1cccc(C)c1-c1cc2nc(n1)NS(=O)(=O)c1cccc(c1)C(=O)N(CC1CCN(CCC(C)(C)C)C1=O)[C@H](CC(C)(C)C)CO2 (some centres unmarked) [Compound 652]
activation at 10 µM [8]: > 60% | EC50 (Table 11): < 1 µM | Emax [3]: > 60%

Compound: Cc1cccc(C)c1-c1cc2cc(n1)NS(=O)(=O)c1cccc(c1)C(=O)N(Cc1cccc(N3CCC[C@H]3C)n1)[C@H](CC(C)(C)C)CO2 [Compound 526]
EC50 (Table 12): < 1 µM | Emax [2]: > 60%

Compound: CCC1CCC(NC(=O)CN2C(=O)c3cccc(c3)S(=O)(=O)Nc3nc(cc(-c4c(C)cccc4C)n3)OC[C@H]2CC(C)(C)C)CC1 (some centres unmarked) [Compound 192]
activation at 10 µM [7]: > 600%

Compound: Cc1cccc(C)c1-c1cc2nc(n1)NS(=O)(=O)c1cccc(c1)C(=O)N(Cc1ncc(N3C[C@@H](F)[C@@H](F)C3)cn1)[C@H](CC(C)(C)C)CO2 [Compound 1481]
EC50 (HBE assay): < 1 µM | Emax [4]: > 60%

Compound: Cc1cccc(C)c1-c1cc2nc(n1)NS(=O)(=O)c1cccc(c1)C(=O)N(Cc1cncc(N(C)C)n1)[C@H](CC(C)(C)C)CO2 [Compound 885]
EC50 (Table 11): < 1 µM | Emax [3]: > 60%

Compound: Cc1cccc(C)c1-c1cc2nc(n1)NS(=O)(=O)c1cccc(c1)C(=O)N(Cc1cnc(N3CCOCC3)cn1)[C@H](CC(C)(C)C)CO2 [Compound 505]
EC50 (Table 10): < 1 µM | Emax [5]: > 60%

Compound: Cc1cccc(C)c1-c1cc2nc(n1)NS(=O)(=O)c1cccc(c1)C(=O)N(CC1CCOC(C)(C)C1)[C@H](CC(C)(C)C)CO2 (single isomer, unassigned) [Compound 28]
activation at 10 µM [8]: > 60%

Other lines, results leading:

EC50 (Table 13): 1 to 3 µM | Emax [1]: > 60%
Compound: Cc1cccc(C)c1-c1cc2nc(n1)NS(=O)(=O)c1cccc(c1)C(=O)N(Cc1ncc(N3CCC(C)(C)CC3)cc1C(F)(F)F)[C@H](CC(C)(C)C)CO2 [Compound 1139]

EC50 (Table 13): < 1 µM | Emax [1]: > 60%
Compound: Cc1cccc(C)c1-c1cc2nc(n1)NS(=O)(=O)c1cccc(c1)C(=O)N(Cc1ncc(Cl)cc1F)[C@H](CC(C)(C)C)CO2 [Compound 1111]

EC50 (Table 12): < 1 µM | Emax [2]: > 60%
Compound: Cc1cccc(C)c1-c1cc2nc(n1)NS(=O)(=O)c1cccc(c1)C(=O)N(Cc1ncc(N3CCC[C@@H]3C)cn1)[C@H](CC(C)(C)C)CO2 [Compound 569]

EC50 (Table 12): < 1 µM | Emax [2]: > 60%
Compound: Cc1cccc(C)c1-c1cc2nc(n1)NS(=O)(=O)c1cccc(c1)C(=O)N(Cc1ncc(OCC(C)(C)C)cn1)[C@H](CC(C)(C)C)CO2 [Compound 567]

EC50 (Table 11): < 1 µM | Emax [3]: > 60%
Compound: Cc1cccc(C)c1-c1cc2nc(n1)NS(=O)(=O)c1cccc(c1)C(=O)N(Cc1nccc(C(C)C)n1)[C@H](CC(C)(C)C)CO2 [Compound 121, (11R)-6-(2,6-Dimethylphenyl)-11-(2,2-dimethylpropyl)-12-[(4-isopropylpyrimidin-2-yl)methyl]-2,2-dioxo-9-oxa-2λ^6-thia-3,5,12,19-tetrazatricyclo[12.3.1.14,8]nonadeca-1(18),4(19),5,7,14,16-hexaen-13-one]

activation at 10 µM [6]: > 600%
Compound: Cc1cccc(C)c1-c1cc2nc(n1)NS(=O)(=O)c1cccc(c1)C(=O)N(Cc1ccc(OC(C)C)nc1)[C@H](CC(C)(C)C)CO2 [Compound 880]

activation at 10 µM [6]: > 600%
Compound: Cc1cccc(C)c1-c1cc2nc(n1)NS(=O)(=O)c1cccc(c1)C(=O)N(Cc1cc(C3CCOCC3)[nH]n1)[C@H](CC(C)(C)C)CO2 [Compound 449]

EC50 (Table 12): < 1 µM | Emax [2]: > 60%
Compound: Cc1cccc(C)c1-c1cc2nc(n1)NS(=O)(=O)c1cccc(c1)C(=O)N(Cc1ncc(OC3CC4(CC4)C3)cn1)[C@H](CC(C)(C)C)CO2 [Compound 560]

EC50 (HBE assay): < 1 µM | Emax [4]: > 60%
Compound: Cc1cccc(C)c1-c1cc2nc(n1)NS(=O)(=O)c1cccc(c1)C(=O)N(Cc1ncc(N3CCC(F)(F)C3)cn1)[C@H](CC(C)(C)C)CO2 [Compound 1379]

EC50 (HBE assay): < 1 µM
Compound: Cc1cccc(C)c1-c1cc2nc(n1)NS(=O)(=O)c1cccc(c1)C(=O)N(Cc1cccc(N3CCC[C@@H]3CC(C)C)n1)[C@H](CC(C)(C)C)CO2 (stereo in doubt) [Compound 1429]

EC50 (HBE assay): < 1 µM | Emax [4]: > 60%
Compound: Cc1cccc(C)c1-c1cc2nc(n1)NS(=O)(=O)c1cccc(c1)C(=O)N(Cc1ncc(OC3CCC3)cc1F)[C@H](CC(C)C)CO2 [Compound 1370]

Emax [5]: > 60%
Compound: Cc1cccc(C)c1-c1cc2nc(n1)NS(=O)(=O)c1cccc(c1)C(=O)N(Cc1ccccn1)[C@H](CC(C)(C)C)CO2 [Compound 381]

EC50 (Table 11): < 1 µM | Emax [3]: > 60%
Compound: Cc1cncc(CN2C(=O)c3cccc(c3)S(=O)(=O)Nc3nc(cc(-c4c(C)cccc4C)n3)OC[C@H]2CC(C)(C)C)n1 [Compound 1069]

Source: patent US20240150377A1, “MODULATORS OF CYSTIC FIBROSIS TRANSMEMBRANE CONDUCTANCE REGULATOR” (VERTEX PHARMACEUTICALS INCORPORATED, priority 2020, published 2024)
